From patent publication US8344163B2, “Nitrile compound and its use for control of arthropod pest” (Sumitomo Chemical Company, Limited, priority 2008, dated 2013)

tested on: Blattalla germanica; experiment: Test Example 5: filter paper with sucrose bait, Blattalla germanica male imagoes; type: in vivo; settings: 500 ppm active ingredient, 0.7 ml on filter paper; 2 male imagoes; after 6 days
Description: A formulation of any one of the present compounds (1t), (1c), (3), (4), (7) and (8) obtained according to Formulation Example 16 was diluted with water to prepare a test solution having 500 ppm of the active ingredient.
A filter paper having a diameter of 5.5 cm was spread on the bottom of a polyethylene cup having a diameter of 5.5 cm and 0.7 ml of the test solution was added dropwise onto the filter paper. As a bait, 30 mg of sucrose was uniformly placed on the filter paper. Into the polyethylene cup, 2 male imagoes of Blattalla germanica were released and the cup was sealed with a lid. After 6 days, the number of surviving or dead Blattalla germanica was counted and the death rate of the pest was calculated.

Compound	pest death rate [%]
C#C[C@H]1CC[C@@H](CC(C#N)(C#N)CCC(F)(F)F)CC1 [(1c)]	100
C#C[C@H]1CC[C@H](CC(C#N)(C#N)CCC(F)(F)F)CC1 [(1t)]	100
C#CC1(F)CCC(CC(C#N)(C#N)CCC(F)(F)F)CC1 (stereo not drawn) [(3)]	100
C#CC12CCC(CC(C#N)(C#N)CCC(F)(F)F)CC1O2 (stereo not drawn) [(4)]	100
C#CC1(F)CCC(CCC(C#N)(C#N)CCC(F)(F)F)CC1 (stereo not drawn) [(7)]	100
CON=C1CCC(CC(C#N)(C#N)CCC(F)(F)F)CC1 (stereo not drawn) [(8)]	100
